Source: PubChem BioAssay AID330 (DTP/NCI, 2004)
Values joined by “and” are separate entries in the source; they are usually repeats but may differ in a detail not shown here. Identical values can stand only once. Toxic doses and inconclusive results are not listed. How the source made its calls: active means survival T/C of 150% or more; inactive means T/C below 125% in these data.

System: P388 leukemia ip, CD2F1 mice, survival T/C
Assay: NCI In Vivo Anticancer Drug Screen. Data for tumor model P388 Leukemia (intraperitoneal) in CD2F1 (CDF1) mice
Conditions: endpoint: median survival time, higher = longer survival
Procedure, shortened: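 Mice carrying the transplanted tumor received test compound or vehicle. Survival was recorded in each group, and the value is the treated-group measurement divided by that of the vehicle-treated control group.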

[1] = dose: 2.0 mg/kg/injection, schedule: Q01DX005 (ip), vehicle: other
[2] = dose: 4.0 mg/kg/injection, schedule: Q01DX005 (ip), vehicle: other

Measured: T/C

COc1ccc(CC2C(=O)NC(C)C(=O)N(C)C3C(=O)N(C)C(Cc4ccc(O)c(c4)Oc4ccc(cc4)C3O)C(=O)NC(C)C(=O)NC(C)C(=O)N2C)cc1 (stereo not given)
active: dose: 0.13 mg/kg/injection, schedule: Q03HX024 (ip), vehicle: saline + alcohol 153 % of control | dose: 0.25 mg/kg/injection, schedule: Q03HX024 (ip), vehicle: saline + alcohol 157 % of control | dose: 0.5 mg/kg/injection, schedule: Q01DX009 (ip), vehicle: clinical formulation 157 % of control | dose: 0.5 mg/kg/injection, schedule: Q01DX009 (ip), vehicle: water 154 % of control | dose: 0.5 mg/kg/injection, schedule: Q03HX016 (ip), vehicle: saline + alcohol 150 % of control | dose: 0.5 mg/kg/injection, schedule: Q03HX024 (ip), vehicle: saline + alcohol 172 % of control | dose: 1.0 mg/kg/injection, schedule: Q01DX005 (ip), vehicle: saline 158 % of control | dose: 1.0 mg/kg/injection, schedule: Q01DX009 (ip), vehicle: clinical formulation 198 % of control | dose: 1.0 mg/kg/injection, schedule: Q01DX009 (ip), vehicle: other 167 % of control | dose: 1.0 mg/kg/injection, schedule: Q01DX009 (ip), vehicle: saline + alcohol 172 % of control | dose: 1.0 mg/kg/injection, schedule: Q01DX009 (ip), vehicle: water 166 % of control | [1] 167 % of control | dose: 2.0 mg/kg/injection, schedule: Q01DX005 (ip), vehicle: saline 166 % of control | dose: 2.0 mg/kg/injection, schedule: Q01DX009 (ip), vehicle: clinical formulation 195 % of control | dose: 2.0 mg/kg/injection, schedule: Q01DX009 (ip), vehicle: other 183 % of control | dose: 2.0 mg/kg/injection, schedule: Q01DX009 (ip), vehicle: saline + alcohol 184 % of control | dose: 2.0 mg/kg/injection, schedule: Q01DX009 (ip), vehicle: water 184 % of control | dose: 2.0 mg/kg/injection, schedule: Q04DX003 (ip), vehicle: other 155 % of control | [2] 165 % of control | dose: 4.0 mg/kg/injection, schedule: Q04DX003 (ip), vehicle: other 155 % of control | dose: 4.0 mg/kg/injection, schedule: Q08DX002 (ip), vehicle: other 152 % of control | dose: 8.0 mg/kg/injection, schedule: Q04DX003 (ip), vehicle: other 163 % of control | dose: 500.0 micrograms/kg/injection, schedule: Q01DX009 (ip), vehicle: saline with Tween-80 150 % of control | dose: 1000.0 micrograms/kg/injection, schedule: Q01DX009 (ip), vehicle: saline with Tween-80 177 % of control | dose: 2000.0 micrograms/kg/injection, schedule: Q01DX009 (ip), vehicle: saline with Tween-80 152 % of control
inactive: dose: 0.03 mg/kg/injection, schedule: Q01DX009 (ip), vehicle: Klucel (hydroxypropylcellulose) (HPC) 94 % of control | dose: 0.03 mg/kg/injection, schedule: Q01DX009 (ip), vehicle: saline + alcohol 100 % of control | dose: 0.03 mg/kg/injection, schedule: Q03HX024 (ip), vehicle: saline + alcohol 123 % of control | dose: 0.06 mg/kg/injection, schedule: Q01DX009 (ip), vehicle: Klucel (hydroxypropylcellulose) (HPC) 102 % of control | dose: 0.06 mg/kg/injection, schedule: Q01DX009 (ip), vehicle: saline + alcohol 106 % of control | dose: 0.06 mg/kg/injection, schedule: Q03HX008 (ip), vehicle: saline + alcohol 118 % of control | dose: 0.06 mg/kg/injection, schedule: Q03HX016 (ip), vehicle: saline + alcohol 122 % of control | dose: 0.12 mg/kg/injection, schedule: Q01DX009 (ip), vehicle: Klucel (hydroxypropylcellulose) (HPC) 104 % of control | dose: 0.12 mg/kg/injection, schedule: Q01DX009 (ip), vehicle: saline + alcohol 111 % of control | dose: 0.13 mg/kg/injection, schedule: Q03HX024 (ip), vehicle: other 103 % of control | dose: 0.25 mg/kg/injection, schedule: Q01DX005 (ip), vehicle: saline 116 % of control | dose: 0.25 mg/kg/injection, schedule: Q01DX005 (iv), vehicle: other 100 % of control | dose: 0.25 mg/kg/injection, schedule: Q01DX005 (iv), vehicle: saline 107 % of control | dose: 0.25 mg/kg/injection, schedule: Q01DX009 (ip), vehicle: Klucel (hydroxypropylcellulose) (HPC) 113 % of control | dose: 0.25 mg/kg/injection, schedule: Q01DX009 (sc), vehicle: other 95 % of control | dose: 0.25 mg/kg/injection, schedule: Q03HX008 (ip), vehicle: other 120 % of control | dose: 0.25 mg/kg/injection, schedule: Q03HX016 (ip), vehicle: other 100 % of control | dose: 0.25 mg/kg/injection, schedule: Q03HX024 (ip), vehicle: other 91 % of control | dose: 0.5 mg/kg/injection, schedule: Q01DX005 (iv), vehicle: other 98 % of control | dose: 0.5 mg/kg/injection, schedule: Q01DX005 (iv), vehicle: saline 114 % of control | dose: 0.5 mg/kg/injection, schedule: Q01DX009 (oral), vehicle: other 98 % of control | dose: 0.5 mg/kg/injection, schedule: Q01DX009 (sc), vehicle: other 99 % of control | dose: 1.0 mg/kg/injection, schedule: Q01DX001 (ip), vehicle: other 122 % of control | dose: 1.0 mg/kg/injection, schedule: Q01DX001 (oral), vehicle: other 103 % of control | dose: 1.0 mg/kg/injection, schedule: Q01DX005 (iv), vehicle: other 99 % of control | dose: 1.0 mg/kg/injection, schedule: Q01DX009 (ip), vehicle: Klucel (hydroxypropylcellulose) (HPC) 113 % of control | dose: 1.0 mg/kg/injection, schedule: Q01DX009 (oral), vehicle: other 95 % of control | dose: 1.0 mg/kg/injection, schedule: Q01DX009 (sc), vehicle: other 95 % of control | dose: 2.0 mg/kg/injection, schedule: Q01DX001 (oral), vehicle: other 97 % of control | dose: 2.0 mg/kg/injection, schedule: Q01DX009 (oral), vehicle: other 122 % of control | dose: 4.0 mg/kg/injection, schedule: Q01DX001 (oral), vehicle: other 100 % of control | dose: 4.0 mg/kg/injection, schedule: Q01DX009 (ip), vehicle: Klucel (hydroxypropylcellulose) (HPC) 116 % of control | dose: 4.0 mg/kg/injection, schedule: Q01DX009 (ip), vehicle: other 94 % of control | dose: 4.0 mg/kg/injection, schedule: Q01DX009 (ip), vehicle: saline + alcohol 103 % of control | dose: 4.0 mg/kg/injection, schedule: Q01DX009 (oral), vehicle: other 122 % of control | dose: 8.0 mg/kg/injection, schedule: Q01DX001 (oral), vehicle: other 104 % of control | dose: 8.0 mg/kg/injection, schedule: Q01DX009 (oral), vehicle: other 92 % of control | dose: 16.0 mg/kg/injection, schedule: Q01DX001 (oral), vehicle: other 95 % of control

Cn1cc2c(cc1=O)-c1nc3ccccc3c3ccnc(c13)C2=O
inactive: dose: 1.25 mg/kg/injection, schedule: Q01DX005 (ip), vehicle: other 96 % of control | dose: 2.5 mg/kg/injection, schedule: Q01DX005 (ip), vehicle: other 97 % of control | dose: 5.0 mg/kg/injection, schedule: Q01DX005 (ip), vehicle: other 92 % of control | dose: 10.0 mg/kg/injection, schedule: Q01DX005 (ip), vehicle: other 90 % of control

[O-][n+]1nc2ccccc2c2ccccc21
inactive: dose: 12.5 mg/kg/injection, schedule: Q01DX009 (ip), vehicle: Klucel (hydroxypropylcellulose) (HPC) 105 % of control | dose: 25.0 mg/kg/injection, schedule: Q01DX009 (ip), vehicle: Klucel (hydroxypropylcellulose) (HPC) 105 % of control | dose: 50.0 mg/kg/injection, schedule: Q01DX009 (ip), vehicle: Klucel (hydroxypropylcellulose) (HPC) 105 % of control and 97 % of control | dose: 100.0 mg/kg/injection, schedule: Q01DX009 (ip), vehicle: Klucel (hydroxypropylcellulose) (HPC) 102 % of control

CCOC(=O)CCC(CC)NC(=O)c1ccc(N)cc1 (stereo not given)
inactive: dose: 12.5 mg/kg/injection, schedule: Q01DX009 (ip), vehicle: distilled water + Tween-80 93 % of control | dose: 25.0 mg/kg/injection, schedule: Q01DX009 (ip), vehicle: distilled water + Tween-80 91 % of control | dose: 50.0 mg/kg/injection, schedule: Q01DX009 (ip), vehicle: distilled water + Tween-80 98 % of control | dose: 100.0 mg/kg/injection, schedule: Q01DX009 (ip), vehicle: distilled water + Tween-80 102 % of control | dose: 200.0 mg/kg/injection, schedule: Q01DX009 (ip), vehicle: distilled water + Tween-80 106 % of control

C=CC1(C)CC(=O)C2(O)C(C)(O1)C(OC(C)=O)C(O)C1C(C)(C)CCC(O)C12C (stereo not given)
inactive: [1] 99 % of control | [2] 100 % of control | dose: 8.0 mg/kg/injection, schedule: Q01DX005 (ip), vehicle: other 95 % of control | dose: 16.0 mg/kg/injection, schedule: Q01DX005 (ip), vehicle: other 94 % of control
